Measured values: paper PMC5826112, “Intrapulmonary Pharmacokinetics of Relebactam, a Novel β-Lactamase Inhibitor, Dosed in Combination with Imipenem-Cilastatin in Healthy Subjects” (Antimicrobial Agents and Chemotherapy, 2018)
Read-outs that look alike come from different tables or passages of the source.

Columns and labels:
[1] = design: method as in data on file; settings: mice; ref data on file; cited from earlier work
[2] = Intrapulmonary (ELF, AC) and plasma pharmacokinetics after multiple-dose IV relebactam with imipenem-cilastatin, bronchoscopy/BAL, noncompartmental analysis; format: in vivo, human (healthy subjects); settings: for t1/2 (terminal half-life) / half-life / AUC(0-inf) / Cmax / Tmax / AUC(0-t): mean profile; for half-life: read-out: t1/2 (terminal half-life) (converted); for Kp at 1 h: 1.0 h after last dose; for Kp at 3 h: 3.0 h after last dose; for AUC(0-inf): noncompartmental analysis; for AUC(0-t): read-out: AUC0–3
Experimental: Dosing and administration of imipenem-cilastatin were carried out in a manner consistent with the recommended labeled posology. BAL fluid specimens were obtained during bronchoscopy for the determination of the relebactam and imipenem concentrations in the ELF and AC. Four aliquots of normal saline (50 ml each) were sequentially instilled and aspirated after each instillation. The first aspirate was discarded, and the remaining aspirates were pooled and used to obtain urea and drug level measurements. Aliquots were obtained for cell count/differential, and the remainder of the pooled aspirates was centrifuged. The liquid aspirate and cell pellet were separated and stored at −70°C. The supernatant was sent for urea and drug level measurements. Blood samples were collected prior to the first and fifth doses of study drug for the determination of relebactam and imipenem plasma concentrations. Blood samples were also collected during the bronchoscopy/BAL procedure for the determination of relebactam, imipenem, and urea concentrations. Relebactam and imipenem levels in plasma, pulmonary ELF, and AC were measured simultaneously via acetonitrile protein precipitation and hydrophilic interaction liquid chromatography (HILIC) with detection via liquid chromatography-tandem mass spectrometry (LC-MS/MS). The system consisted of a Waters Acquity ultraperformance liquid chromatograph (Waters Corp., Milford, MA) and an API 4000 or 5000 triple-quadrupole tandem mass spectrometer (Sciex, Framingham, MA) equipped with a turbo-ion spray interface and operated in the positive ionization mode. The multiple reaction monitoring (MRM) transitions monitored were m/z 349 → 269 for relebactam, m/z 300 → 98 for imipenem, and m/z 354 → 274 and m/z 307 → 98 for their respective internal standards. […] The ELF volumes recovered by BAL were determined by using urea as an endogenous marker to provide a dilution ratio by measurement of urea concentrations in the BAL fluid and serum ([33]). […] The mean value for each time point was used to conduct the noncompartmental analysis using Phoenix (version 6.3) software (Pharsight Corporation, Mountain View, CA) and to calculate the values of the PK parameters on the basis of the mean profile in each matrix.

[3] = both sexes, human, AC/plasma, intravenous, same regimen, n=4, read-out: AC/plasma concn GMR (90% CI)
[4] = both sexes, human, ELF/plasma, intravenous, same regimen, n=4, read-out: ELF/plasma concn GMR (90% CI)
[5] = both sexes, human, intravenous, AC, same regimen
[6] = both sexes, human, intravenous, ELF, same regimen
[7] = both sexes, human, intravenous, plasma, same regimen

For `O=C(NC1CCNCC1)[C@@H]1CC[C@@H]2CN1C(=O)N2OS(=O)(=O)O` [relebactam], the “penetration into the murine lung, ratio of total drug levels in the lung to total drug levels in plasma” value [1] is given as “approximately 34%”, the “t1/2 (terminal half-life)” value ([2]; AC, same regimen) is given as 2.25 h and the “t1/2 (terminal half-life)” value ([2]; ELF, same regimen) is given as 1.29 h. For the same molecule, the “GMR for the relebactam concentration versus the imipenem concentration in ELF” value ([2]; at the Tmax of imipenem (0.5 h), 90% CI 45%, 49%) was 47%, the half-life ([2]; both sexes, human, AC, intravenous, AC, same regimen) was 2.3 h and the Kp ([2]; both sexes, human, AC/plasma, intravenous, mean profiles, after adjustment for protein binding, read-out: relative exposure (AUC0–∞) in AC versus plasma) was 0.36. The Kp ([2]; both sexes, human, AC/plasma, intravenous, same regimen, 0.5 to 3 h after last dose, read-out: GMRs for AC/plasma concentrations, range across time points) was 0.14 to 0.51, the Kp at 0.5 h ([2]; both sexes, human, AC/plasma, intravenous, same regimen, 0.5 h after last dose, n=4, read-out: AC/plasma concn GMR (90% CI)) was 0.14 and the Kp at 1 h [2, 3] was 0.25. It also gave a Kp at 1.5 h ([2]; both sexes, human, AC/plasma, intravenous, same regimen, 1.5 h after last dose, n=4, read-out: AC/plasma concn GMR (90% CI)) of 0.38, a Kp at 3 h [2, 3] of 0.51 and a half-life ([2]; both sexes, human, ELF, intravenous, ELF, same regimen) of 1.3 h. For the same molecule, the concentration at 0.5 h ([2]; both sexes, human, ELF, intravenous, same regimen, 0.5 h after last dose, n=4, read-out: concn in ELF, GM) was 14.9 µM, the concentration at 1 h ([2]; both sexes, human, ELF, intravenous, same regimen, 1 h after last dose, n=4, read-out: concn in ELF, GM) was 10.9 µM and the concentration at 1.5 h ([2]; both sexes, human, ELF, intravenous, same regimen, 1.5 h after last dose, n=4, read-out: concn in ELF, GM) was 9.49 µM. It also gave a concentration at 3 h ([2]; both sexes, human, ELF, intravenous, same regimen, 3 h after last dose, n=4, read-out: concn in ELF, GM) of 4.27 µM, a Kp ([2]; both sexes, human, ELF/plasma, intravenous, calculated as 100 · ELF AUC0–∞/plasma AUC0–∞/0.8, adjusted for protein binding (80% unbound in plasma, 100% free in ELF), read-out: Adjusted ELF/plasma AUC0–∞ ratio) of 0.54 and a Kp ([2]; both sexes, human, ELF/plasma, intravenous, calculated as 100 · ELF AUC0–∞/plasma AUC0–∞, mean profiles, read-out: ELF/plasma AUC0–∞ ratio) of 0.43. The Kp ([2]; both sexes, human, ELF/plasma, intravenous, same regimen, 0.5 to 3 h after last dose, read-out: GMRs for ELF/plasma concentrations, range across time points) was 0.32 to 0.51, the Kp at 1 h [2, 4] was 0.35 and the Kp at 1.5 h ([2]; both sexes, human, ELF/plasma, intravenous, same regimen, 1.5 h after last dose, n=4, read-out: ELF/plasma concn GMR (90% CI)) was 0.51. For the same molecule, the Kp at 3 h [2, 4] was 0.46, the Kp at 0.5 h ([2]; both sexes, human, ELF/plasma, iv, healthy subjects, relebactam 250 mg with imipenem-cilastatin 500 mg IV every 6 h, 5 doses, 0.5 h after last dose, n=4, read-out: ELF/plasma concn GMR (90% CI)) was 0.32 and the AUC(0-inf) [2, 5] was 23.6 µM·h. For the same molecule, the Cmax [2, 5] was 7.81 µM, the Tmax [2, 5] was 1 h and the AUC(0-t) [2, 5] was 12.8 µM·h. It also gave an AUC(0-inf) [2, 6] of 34.9 µM·h, a Cmax [2, 6] of 15.3 µM and a Tmax [2, 6] of 0.5 h. It also gave an AUC(0-t) [2, 6] of 26.7 µM·h, an AUC(0-inf) [2, 7] of 81.2 µM·h and a Cmax [2, 7] of 47.9 µM. It also gave a Tmax [2, 7] of 0.5 h, an AUC(0-t) [2, 7] of 64.7 µM·h and a half-life ([2]; both sexes, human, plasma, intravenous, plasma, same regimen) of 1.2 h. For the same molecule, the “Adjusted ELF/plasma AUC0–∞ ratio” value ([2]; calculated as 100 · ELF AUC0–∞/plasma AUC0–∞/0.8, adjusted for protein binding (80% unbound in plasma, 100% free in ELF)) was 53.7%, the “t1/2 (terminal half-life)” value ([2]; plasma, same regimen) was 1.24 h and the “Relebactam/imipenem concn ratio in ELF, GMR” value ([2]; same regimen, 0.5 h after last dose) was 0.47. The “Relebactam/imipenem concn ratio in ELF, GMR” value ([2]; same regimen, 1 h after last dose) was 0.54, the “Relebactam/imipenem concn ratio in ELF, GMR” value ([2]; same regimen, 1.5 h after last dose) was 0.58 and the “Relebactam/imipenem concn ratio in ELF, GMR” value ([2]; same regimen, 3 h after last dose) was 0.71.
